This experiment addresses T1, HIPK4 (Homo sapiens, UniProt Q8NE63).
T1 construct: purchased Thermo Fisher Scientific (Life Technologies) SelectScreen
In words: SelectScreen Z'LYTE. Format: biochemical. The procedure, abridged: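 NU5455 was profiled across the SelectScreen Broad panel of kinase activity and binding assays. Z'LYTE reactions such as CSF1R ran at apparent Km ATP, while the Adapta CAMK1 assay used ATP listed as 10. Values are given as percent.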

This passage reports inhibition results from article PMC6934184, “Selective DNA-PKcs inhibition extends the therapeutic index of localized radiotherapy and chemotherapy” (The Journal of Clinical Investigation, 2019).

T1 sequence (Q8NE63 whole entry): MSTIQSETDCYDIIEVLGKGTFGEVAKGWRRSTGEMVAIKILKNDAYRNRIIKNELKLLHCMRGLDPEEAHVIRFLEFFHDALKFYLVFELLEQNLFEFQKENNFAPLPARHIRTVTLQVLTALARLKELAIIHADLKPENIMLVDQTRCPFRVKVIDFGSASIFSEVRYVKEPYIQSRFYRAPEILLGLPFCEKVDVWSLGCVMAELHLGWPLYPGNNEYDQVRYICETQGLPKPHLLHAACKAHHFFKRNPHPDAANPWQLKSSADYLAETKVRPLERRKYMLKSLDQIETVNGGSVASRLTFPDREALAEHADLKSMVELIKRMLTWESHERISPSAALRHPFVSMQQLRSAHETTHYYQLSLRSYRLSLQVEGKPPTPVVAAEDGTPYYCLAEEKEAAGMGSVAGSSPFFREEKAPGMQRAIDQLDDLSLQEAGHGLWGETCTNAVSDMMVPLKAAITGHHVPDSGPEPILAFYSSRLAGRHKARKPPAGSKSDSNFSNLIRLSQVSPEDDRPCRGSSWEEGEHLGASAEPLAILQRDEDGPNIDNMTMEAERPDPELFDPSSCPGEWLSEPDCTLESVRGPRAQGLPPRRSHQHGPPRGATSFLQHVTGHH

In the case of `CN(C(=O)CN1CCOCC1)c1ccc2sc3c(-c4cccc5c(=O)cc(N6CC7CCC(C6)O7)oc45)cccc3c2c1` [NU5455], testing at 1 µM gave an inhibition of 0.9%.
